Key:
physchem = format: physicochemical; conditions: aqueous buffer, kinetic from dmso stock, PBS pH 7.0-7.3, 1% DMSO, 25° C.; for solubility: nephelometry, 90 min
Method: General Experimental: Nephelometry experiments were performed using untreated Corning® Costar® 96-well black polystyrene plates with clear flat bottoms. Sample stock solutions and serial dilutions were prepared with DriSolv® DMSO purchased from MilliporeSigma. All 100-fold dilutions and replicate experiments were prepared using Gibco® Dulbecco's phosphate-buffered saline (DPBS, no calcium, no magnesium) with a pH range of 7.0-7.3 as aqueous media. […] Nephelometry data was obtained using a NEPHELOstar® microplate reader and processed with MARS data analysis software from BMG LabTech.
Procedure for Nephelometry Experiments: Tested compounds were dissolved in 100% DMSO to make stock solutions of specified concentrations, ranging from 10 mM minimum up to 50 mM maximum. The sample then underwent serial dilution in a 96-well plate (Corning® Costar®). Well A1 of the plate contained 100% DMSO. […] Using a 12 channel multichannel pipette, 2.5 μL of sample from row A was transferred to each well in row B through row H of the plate. Next, 30 μL of PBS (pH=7.0-7.3) was added to row B through row H, providing each well with 32.5 μL. The plate was then incubated for 30 sec with shaking. Finally, 217.5 μL of PBS buffer was added to row B through row H, and the entire plate was incubated with shaking at 25° C. for 90 min. Note: The final volume of DMSO in actual experiments with PBS buffer was 1% throughout the plate. After 90 min, the 96-well plate was analyzed with a NEPHELOstar® instrument and the data was processed with MARS data analysis software.

[1] = Liver microsome stability assay (HLM); format: in vitro ADME; conditions: human, microsomes, pH 7.4; 3 μM test compound, NADPH; read-out: T½ in HLM
Method: General Experimental: Human and mouse liver microsomes were purchased from Xenotech at 20 mg/mL. NADPH (Sigma-Aldrich) 10 mM stocks were prepared in deionized water.
Procedure for Liver Microsome Stability Assay: Test compounds and positive controls were dissolved in 100% DMSO to make 10 mM stock solutions. Verapamil (Sigma-Aldrich) and diphenhydramine (Sigma-Aldrich) were used as positive controls for both human liver microsomes (HLM) and mouse liver microsomes (MLM). The 10 mM stock solutions of test and control compounds were further diluted in potassium phosphate buffer (100 mM, pH 7.4) to 500 μM to ensure that the organic solvent content was <0.2%. The liver microsome (HLM or MLM) assay was prepared in a 1.5 mL Eppendorf tube with a final volume of 1100 μL for duplicate runs. Each reaction contained phosphate buffer (928.4 μL), liver microsomes (55 μL), and test compound (6.6 μL of 500 μM), resulting in a final concentration of 3 μM for the test compound. The reaction was initiated with 110 μL of 10 mM NADPH. Aliquots (100 μL) were removed in duplicate at 0, 5, 10, 15, and 30 min and quenched in […] of 100% cold methanol which contained internal standard (ISTD: d5-7-ethoxy coumarin 2 μM). The aliquots were centrifuged at 12,000 g for 5 min, and the supernatant was transferred and placed in an LC-MS vial. Each time point was assessed by LC-MS/MS, and the area under the m/z curve (AUC), based on the MRM transition, was integrated w.r.t the ISTD. Positive controls were conducted at a final volume of 550 μL to enable a single run for each time point. Negative controls in the absence of NADPH were performed with the test and control compounds, respectively, at a final volume of 150 μL and measured at the most prolonged time point. Control compounds were processed and analyzed like test compounds. Each time point was run in triplicates on LC-MS/MS followed by in-between blank washes to avoid the carryover and to equilibrate the column. Half-life (T1/2) was calculated using the data obtained from LC-MS/MS and by plotting ln (% remaining of the parent prodrug) versus time and performing linear regression to determine slope. Slope=−k and T1/2=0.693/k for first-order kinetics.

[2] = Plasma stability assay (human plasma); format: in vitro ADME; conditions: 37° C.; for half-life: read-out: T½ in human plasma (converted)
Method: General Experimental: Procaine and Procainamide were purchased from Sigma-Aldrich. Human plasma was obtained from BioIVT (Cat. No. […]2N) and 1X Dulbecco's PBS (pH 7.4, Gibco) was obtained from Thermos Fischer. Stock solutions were prepared in 100% DMSO, and suitable dilutions of target analytes were prepared in methanol for method development.
Procedure for Plasma Stability Assay: Test compounds were dissolved in DMSO to make a stock solution of 10 mM and then diluted to 500 μM in buffer (or 70% MeOH). Human plasma was thawed at ambient temperature and is aliquoted ([…]) to a 1.5 mL Eppendorf tube in duplicates (A and B) for each compound. Plasma was incubated at 37° C. for 10 minutes in an incubator shaker at 150 rpm; the reaction was initiated by the addition of the test compound (6.0 μL) and vortex mixing. The total reaction volume was 1000 μL where the final organic solvent concentrations were 0.6% MeOH and 0.03% DMSO. The spiked plasma samples were incubated at 37° C. for 4 hrs. The reactions were terminated at time points 0, 15, 30, 60, 120, 180, and 240 min by taking a 100 μL aliquot from the test incubation mixture and immediately quenching it in ice-cold acetonitrile containing internal standard (150 μL with 2 μM ISTD), followed by a quick vortex mixing. In addition, matrix blank was prepared by adding acetonitrile solutions containing ISTD to plasma samples without any of the analytes or control compounds. Also, an additional tube was made to measure compound degradation in PBS buffer. The samples were centrifuged at 15000 rpm for 25 min at 4° C. The supernatant was transferred to an LC-MS vial for analysis by LC/MS-MS. Each time point was run in duplicates followed by in-between blank washes to avoid the carryover and to equilibrate the column. Half-life (T1/2) was calculated using the data obtained from LC-MS/MS and by plotting ln (% remaining of the parent prodrug) versus time and performing linear regression to determine slope. Slope=−k and T1/2=0.693/k for first-order kinetics.
These positive controls were run in parallel to test the systems for competency.

**Q.** For `C=C(C)[C@@H]1CCC(C)=C[C@H]1c1c(O)cc(CCCCC)cc1OC(=O)C1(OP(=O)(O)OCCOCCOC)CC1.N` [14j, 1-((((1′R,2′R)-6-hydroxy-5′-methyl-4-pentyl-2′-(prop-1-en-2-yl)-1′,2′,3′,4′-tetrahydro-[1,1′-biphenyl]-2-yl)oxy)carbonyl)cyclopropyl (2-(2-methoxyethoxy)ethyl) phosphate ammonium salt], which solubility (physchem) is on record?
**A.** Its solubility is greater than 500 µM.

**Q.** And the half-life [1]?
**A.** Its half-life is 0.4 h.

**Q.** What about the half-life [2] of the same molecule?
**A.** Its half-life is greater than 4 h.

**Q.** Which solubility (physchem) does the source give for `C=C(C)[C@@H]1CCC(C)=C[C@H]1c1c(O)cc(CCCCC)cc1OC(=O)OCCOP(=O)(O)O.N.N` [29a, (1′R,2′R)-6-hydroxy-5′-methyl-4-pentyl-2′-(prop-1-en-2-yl)-1′,2′,3′,4′-tetrahydro-[1,1′-biphenyl]-2-yl(2-(phosphonooxy)ethyl) carbonate di-ammonium salt] here?
**A.** Its solubility is greater than 500 µM.

**Q.** And the half-life [1]?
**A.** The half-life was 0.7 h.

**Q.** What about the half-life [2] of the same molecule?
**A.** The half-life was 16.5 h.

**Q.** Which results are given for `C=C(C)[C@@H]1CCC(C)=C[C@H]1c1c(O)cc(CCCCC)cc1OC(=O)OCCCOP(=O)(O)O.N.N` [29b, (1′R,2′R)-6-hydroxy-5′-methyl-4-pentyl-2′-(prop-1-en-2-yl)-1′,2′,3′,4′-tetrahydro-[1,1′-biphenyl]-2-yl(3-(phosphonooxy)propyl) carbonate di-ammonium salt]?
**A.** solubility (physchem): > 500 µM; half-life [1]: 0.317 h; half-life [2]: > 4 h

**Q.** With `C=C(C)[C@@H]1CCC(C)=C[C@H]1c1c(O)cc(CCCCC)cc1OC(=O)OCCCCOP(=O)(O)O.N.N` [29c, (1′R,2′R)-6-hydroxy-5′-methyl-4-pentyl-2′-(prop-1-en-2-yl)-1′,2′,3′,4′-tetrahydro-[1,1′-biphenyl]-2-yl(4-(phosphonooxy)butyl) carbonate di-ammonium salt] as the molecule, how does the solubility (physchem) read?
**A.** Its solubility is greater than 500 µM.

**Q.** And the half-life [1]?
**A.** The half-life was 0.417 h.

**Q.** What about the half-life [2] of the same molecule?
**A.** Its half-life is greater than 4 h.

**Q.** Which solubility (physchem) does the source give for `C=C(C)[C@@H]1CCC(C)=C[C@H]1c1c(O)cc(CCCCC)cc1OC(=O)NCCOP(=O)(O)O.N.N` [38a, (1′R,2′R)-6-hydroxy-5′-methyl-4-pentyl-2′-(prop-1-en-2-yl)-1′,2′,3′,4′-tetrahydro-[1,1′-biphenyl]-2-yl(2-(phosphonooxy)ethyl)carbamate di-ammonium salt] here?
**A.** Its solubility is greater than 500 µM.

**Q.** What about the half-life [1] of the same molecule?
**A.** The half-life was 2.02 h.

**Q.** What about the half-life [2] of the same molecule?
**A.** The half-life was greater than 4 h.

**Q.** Which solubility at 90 min (physchem) does the source give for `C=C(C)[C@@H]1CCC(C)=C[C@H]1c1c(O)cc(CCCCC)cc1OC(=O)N(C)CCOP(=O)(O)O.N.N` [38b, (1′R,2′R)-6-hydroxy-5′-methyl-4-pentyl-2′-(prop-1-en-2-yl)-1′,2′,3′,4′-tetrahydro-[1,1′-biphenyl]-2-yl methyl(2-(phosphonooxy)ethyl)carbamate di-ammonium salt] here?
**A.** The solubility at 90 min was greater than 500 µM.

**Q.** What about the half-life at 3 μM [1] of the same molecule?
**A.** The half-life at 3 μM was 3.83 h.

**Q.** What about the half-life at 3 μM ([2]; read-out: T½ in human plasma) of the same molecule?
**A.** The half-life at 3 μM was greater than 4 h.

**Q.** Which solubility (physchem) does the source give for `C=C(C)[C@@H]1CCC(C)=C[C@H]1c1c(O)cc(CCCCC)cc1OC(=O)NCCCOP(=O)(O)O.N.N` [38c, (1′R,2′R)-6-hydroxy-5′-methyl-4-pentyl-2′-(prop-1-en-2-yl)-1′,2′,3′,4′-tetrahydro-[1,1′-biphenyl]-2-yl (3-(phosphonooxy)propyl)carbamate di-ammonium salt] here?
**A.** Its solubility is greater than 500 µM.

**Q.** What about the half-life [1] of the same molecule?
**A.** Its half-life is 1.22 h.

**Q.** What about the half-life [2] of the same molecule?
**A.** Its half-life is greater than 4 h.

**Q.** Which solubility (physchem) does the source give for `C=C(C)[C@@H]1CCC(C)=C[C@H]1c1c(O)cc(CCCCC)cc1OC(=O)C1(OP(=O)(O)OCc2ccccc2)CC1.N` [compound 8, benzyl (1-((((1′R,2′R)-6-hydroxy-5′-methyl-4-pentyl-2′-(prop-1-en-2-yl)-1′,2′,3′,4′-tetrahydro-[1,1′-biphenyl]-2-yl)oxy)carbonyl)cyclopropyl) phosphate ammonium salt] here?
**A.** The solubility was 287 ± 13 µM.

**Q.** And the half-life [1]?
**A.** Its half-life is 0.383 h.

**Q.** What about the half-life [2] of the same molecule?
**A.** Its half-life is 5.3 h.
